This passage reports Activity results from ChEMBL document CHEMBL1155523, “Synthesis and biological activity of alpha-L-fucosyl ceramides, analogues of the potent agonist, alpha-D-galactosyl ceramide KRN7000” (2010).

This experiment concerns iNKT. Kind of experiment: Effect on immune response in human iNKT cells stimulated by antigen-presenting CD1d assessed as cellular expansion at 250 nM after 8 days by FACSCalibur flow cytometry relative to control. The format is functional. On the technique in general: In flow cytometry, cells or beads pass a laser one at a time.
For the compound `CCCCCCCCCCCCCCCCCCCCCCCCCC(=O)N[C@@H](CO[C@@H]1O[C@@H](C)[C@@H](O)[C@H](O)[C@@H]1O)[C@H](O)[C@H](O)CCCCCCCCCCCCCC`, the Activity is 12%.
On to `CCCCC/C=C\C/C=C\CCCCCCCCCC(=O)N[C@@H](CO[C@@H]1O[C@@H](C)[C@@H](O)[C@H](O)[C@@H]1O)[C@H](O)[C@H](O)CCCCCCCCCCCCCC`, for which the Activity is on record as 0.56%.
As to `CCCCCCCCCCCCCCCCC(O)C(=O)N[C@@H](CO[C@@H]1O[C@@H](C)[C@@H](O)[C@H](O)[C@@H]1O)[C@H](O)[C@H](O)CCCCCCCCCCCCCC` (stereo not given in full), the Activity is reported as 2.9%.
For `CCCCCCCCCCCCCCCCCCCCCCCC(=O)N[C@@H](CO[C@@H]1O[C@@H](C)[C@@H](O)[C@H](O)[C@@H]1O)[C@H](O)[C@H](O)CCCCCCCCCCCCCC`, the Activity stood at 1.1%.
Consider `CCCCCCCCCCCCCCCCCCCCCCCCCC(=O)N[C@@H](CO[C@H]1O[C@H](CO)[C@H](O)[C@H](O)[C@H]1O)[C@H](O)[C@H](O)CCCCCCCCCCCCCC` [RGI-7000], for which the Activity amounted to 26%.
